Assay results from patent US20160310463A1, “LIQUID STATIN FORMULATION” (priority 2009, published 2016).
Structures can show the parent of a compound that is named as a salt. Where two headings read alike, the source gives them in different places. One block for each molecule: values may come before it.

Experiments:
[1] = system: HeFH children and adolescents; settings: 5 mg and 10 mg pravastatin; cited from earlier work
[2] = system: adrenocortical and testicular steroidogenesis; settings: males age 18-50 years, long-term therapy, cited from earlier work
[3] = adults; estimate for the five statins together; cited from earlier work
pediatric HeFH patients = settings: cited from earlier work
[4] = system: children younger than 17 years of age with hyperlipidemia; settings: mean dosage 16 mg once daily, cited from earlier work
[5] = Simvastatin solubility screening, visual observation; assay type: physicochemical; settings: for Visual Appearance: 23° C.
Protocol: The study was performed by visual observation of the samples at various time points followed by chemical testing of the centrifuged supernatant. Ten vehicles chosen for the solubility screen are referenced in Table 2 below. One (1 g) of each vehicle was dispensed into an Eppendorf tube. […] Samples not visually soluble, after about 21 hours, were heated to 60° C. while being mixed for 1 hour. Samples were allowed to reach room temperature, and visual observations were recorded. All samples were centrifuged for 10 minutes at 10,000 RPM.

children with HeFH [6] = assay: Dirisamer et al.: low-dose simvastatin in children with HeFH; assay type: in vivo, human
Protocol: If the range of LDL-C of 150-170 mg/dl was not reached within the first 8 weeks, the daily dosage was increased stepwise up to 20 mg. The cut-off level for LDL-C<170 mg/dl (range 150-170 mg/dl) was determined according to the high mean concentrations of LDL-C of the study population.

children with HeFH [7] = settings: cited from earlier work
[8] = cited from earlier work
[9] = pH of 7.0; cited from earlier work
[10] = system: testicular endocrine function; settings: dogs, very high doses; cited from earlier work
[11] = system: adrenal and gonadal steroidogenesis; settings: humans, up to 80 mg/day, basal conditions; cited from earlier work
children and adolescents = settings: cited from earlier work

Molecule: CC[C@H](C)C(=O)O[C@H]1C[C@H](O)C=C2C=C[C@H](C)[C@H](CC[C@@H](O)C[C@@H](O)CC(=O)O)[C@H]21 [Pravastatin, (bR,dR,1S,2S,6S,8S,8aR)-1,2,6,7,8,8a-Hexahydro-b,d,6-trihydroxy-2-methyl-8-[(2S)-2-methyl-1-oxobutoxy]-1-naphthaleneheptanoic acid monosodium salt]
average decrease in LDL-C concentration [1]: 23%
interference with adrenal and testicular steroidogenesis ([2]; maximum stimulation): did not interfere
serum testosterone levels [2]: remained unchanged
occurrence of rhabdomyolysis [3]: 3 per 100 000 person-years

Visual Appearance ([5]; 2.5 mg in 1 g 5% SLS in Water, 30 Min to ~21 Hrs): Clear colorless liquid w/ air bubbles
Visual Appearance ([5]; 2.5 mg in 1 g Captex 500 P, 30 Min to ~21 Hrs): Clear colorless liquid
Visual Appearance ([5]; 2.5 mg in 1 g E. Pure Water, 30 Min to ~21 Hrs): Cloudy liquid w/ white powder
Visual Appearance ([5]; 2.5 mg in 1 g Labrafil M 2125 CS, merged cell, Initial to about 2 Hrs): Yellow liquid w/ white powder
Visual Appearance ([5]; 2.5 mg in 1 g Labrasol, 30 Min to ~21 Hrs): Pale yellow liquid
Visual Appearance ([5]; 2.5 mg in 1 g PEG 400, 30 Min to ~21 Hrs): Clear colorless liquid
Visual Appearance ([5]; 2.5 mg in 1 g Polysorbate 80, Initial to ~21 Hrs): Yellow liquid w/ white powder
Visual Appearance ([5]; 2.5 mg in 1 g Propylene Glycol, 30 Min to ~21 Hrs): Clear colorless liquid
Molecule: CCC(C)(C)C(=O)O[C@@H]1C[C@H](C)C=C2C=C[C@@H](C)[C@@H](CC[C@@H]3C[C@H](O)CC(=O)O3)[C@@H]21 (relative stereo) [Simvastatin, butanoic acid, 2,2-dimethyl-,1,2,3,7,8,8a-hexahydro-3,7-dimethyl-8-[2-(tetrahydro-4-hydroxy-6-oxo-2H-pyran-2-yl)-ethyl]-1-naphthalenyl ester, [1S-[1α,3α,7β,8β(2S*,4S*),-8aβ]]]
change in total-C, LDL-C and ApoB compared with placebo (pediatric HeFH patients; at 24 weeks): significant (P<0.001) reductions
change in HDL-C and ApoA1 (pediatric HeFH patients; only significant relative to placebo at week 24 (P<0.05)): increased for all weeks
results from the extension at 48 weeks (pediatric HeFH patients; simvastatin 40 mg): comparable to those observed in the base study
change in triglycerides (pediatric HeFH patients; weeks 8, 16, and 48): Significant reductions
fall of circulating LDL-C at week 104 ([4]; in 1 patient): 15-20%
fall of circulating LDL-C at week 104 ([4]; in 7 patients): 40-60%
fall of circulating LDL-C at week 104 ([4]; in 8 patients): 20-40%
Visual Appearance after Application of Heat (60° C.) for 1 Hour and Cooled to Room Temperature ([5]; 2.5 mg in 1 g E. Pure Water): Hazy liquid w/ white powder and air bubbles
Visual Appearance after Application of Heat (60° C.) for 1 Hour and Cooled to Room Temperature ([5]; 2.5 mg in 1 g Glycerine): Slightly hazy liquid w/ some white powder
Visual Appearance ([5]; 2.5 mg in 1 g Glycerine, Initial to ~21 Hrs): Stiff clear, colorless liquid w/ white powder
Visual Appearance after Application of Heat (60° C.) for 1 Hour and Cooled to Room Temperature ([5]; 2.5 mg in 1 g Polysorbate 80): Clear yellow liquid w/ some white residue
higher LDL-C reduction compared with other statins tested in young HeFH patients (children with HeFH [6]; 5 mg and 10 mg simvastatin period): ~10%
share of the mean LDL-C reduction of the highest dose (20 mg/day) reached by the lowest dose (5 mg/day) (children with HeFH [6]; in vivo): more than 70%
patients reaching the recommended therapeutic level (LDL-C<170 mg/dl) within the first period (children with HeFH [7]; 5 mg simvastatin daily, nine patients started with 5 mg): four
percentage decrease in LDL-C concentration (children with HeFH [7]; 5 mg simvastatin period): 25%
percentage decrease in total cholesterol (children with HeFH [7]; 5 mg simvastatin period): 19%
patients reaching the recommended therapeutic level within the first period (children with HeFH [7]; 10 mg simvastatin daily, 11 patients started with 10 mg): Six
percentage decrease in LDL-C concentration (children with HeFH [7]; 10 mg simvastatin period): 30%
percentage decrease in total cholesterol (children with HeFH [7]; 10 mg simvastatin period): 26%
percentage decrease in LDL-C concentration (children with HeFH [7]; 20 mg simvastatin period): 36%
percentage decrease in total cholesterol (children with HeFH [7]; 20 mg simvastatin period): 29%
side effects that could be related to simvastatin (children with HeFH [7]; 5, 10 and 20 mg dosage periods): few and equally distributed among the three dosage periods
subjects with abnormal levels of routine safety parameters (CK, ALAT, GGT) (children with HeFH [7]; group of 20 girls and boys): three

Molecule: CC(C)c1nc(N(C)S(C)(=O)=O)nc(-c2ccc(F)cc2)c1/C=C/C(O)C[C@@H](O)CC(=O)O (stereo in doubt) [Rosuvastatin calcium, bis[(E)-7-[4-(4-fluorophenyl)-6-isopropyl-2-[methyl(methylsulfonyl)amino]pyrimidin-5-yl](3R,5S)-3,5-dihydroxyhept-6-enoic acid] calcium salt]
solubility ([8]; in ethanol): slightly soluble
solubility ([8]; in water and methanol): sparingly soluble
partition coefficient (octanol/water) [9]: 0.13

Molecule: [R.,S.-(E)]-(±)-7-[3-(4-fluorophenyl)-1-(1-methylethyl)-1H-indol-2-yl]-3,5-dihydroxy-6-heptenoic acid, monosodium salt [Fluvastatin]
occurrence of rhabdomyolysis [3]: 3 per 100 000 person-years

Molecule: CC[C@H](C)C(=O)O[C@H]1C[C@@H](C)C=C2C=C[C@H](C)[C@H](CC[C@@H]3C[C@@H](O)CC(=O)O3)[C@H]21 [Lovastatin, (1S,3R,7S,8S,8aR)-8-{2-[(2R,4R)-4-hydroxy-6-oxooxan-2-yl]ethyl}-3,7-dimethyl-1,2,3,7,8,8a-hexahydronaphthalen-1-yl (2S)-2-methylbutanoate]
effect on testicular endocrine function [10]: reduction in testicular endocrine function
effect on adrenal and gonadal steroidogenesis [11]: no effect
LDL-C reduction (children and adolescents; 10 mg lovastatin): 21%
LDL-C reduction (children and adolescents; 20 mg lovastatin): 24%
share of the mean LDL-C reduction of the highest dose of 40 reached by the lowest dose (10 mg/day) (children and adolescents; in vivo): more than 50%
occurrence of rhabdomyolysis [3]: 3 per 100 000 person-years

Molecule: COCc1c(C(C)C)nc(C(C)C)c(/C=C/[C@@H](O)C[C@@H](O)CC(=O)O)c1-c1ccc(F)cc1 [Cerivastatin sodium]
solubility ([8]; in acetone): very slightly soluble
solubility ([8]; in water, methanol, and ethanol): soluble

Molecule: CC(C)c1c(C(=O)Nc2ccccc2)c(-c2ccccc2)c(-c2ccc(F)cc2)n1CC[C@@H](O)C[C@@H](O)CC(=O)O [Atorvastatin, (3R, 5R)-7-[2-(4-fluorophenyl)-3-phenyl-4-(phenylcarbamoyl)-5-(propan-2-yl)-1H-pyrrol-1-yl]-3,5-dihydroxyheptanoic acid]
occurrence of rhabdomyolysis [3]: 3 per 100 000 person-years
